System: HCT116 colorectal cancer cells
Experiment: Cisplatin sensitization assay (96 h cell viability MTS);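 note: Test-compound concentration that lowers the Cisplatin IC50 by a set fold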
Type: cell-based
Conditions: compound and Cisplatin added simultaneously, Cisplatin sensitization value
Description: Compounds can be screened for their ability to sensitize HCT116 colorectal cancer cells to Cisplatin using a 96 h cell viability (MTS) assay. […] Compounds and Cisplatin are then both added simultaneously to the cell media in 2-fold serial dilutions from a top final concentration of 10 μM as a full matrix of concentrations in a final cell volume of 200 μl, and the cells are then incubated at 37° C. in 5% CO2. After 96 h, 40 μl of MTS reagent (Promega G358a) is added to each well and the cells are incubated for 1 h at 37° C. in 5% CO2.
Compounds with a Cisplatin sensitization value of <0.02 μM are marked with “+++.” Compounds with a Cisplatin sensitization value>0.02 μM but <0.2 μM are marked with “++.” Compounds with a Cisplatin sensitization value>0.2 μM but <5 μM are marked with “+.”

SMILES | Cisplatin Sensitization Assay
Nc1nn2cc(F)cnc2c1C(=O)Nc1cnccc1-c1ccc(C(=O)N2CCN(C3COC3)CC2)nc1 [I-C-52, 2-amino-6-fluoro-N-(6-(4-(oxetan-3-yl)piperazine-1-carbonyl)-[3,4′-bipyridin]-3′-yl)pyrazolo[1,5-a]pyrimidine-3-carboxamide] | ++ (Cisplatin sensitization value>0.02 μM but <0.2 μM)
Nc1nn2cc(F)cnc2c1C(=O)Nc1cnccc1-c1ccc(C(=O)N2CCC(N3CCCC3)CC2)nc1 [I-C-53, 2-amino-6-fluoro-N-(6-(4-(pyrrolidin-1-yl)piperidine-1-carbonyl)-[3,4′-bipyridin]-3′-yl)pyrazolo[1,5-a]pyrimidine-3-carboxamide] | +++ (Cisplatin sensitization value of <0.02 μM)
Nc1nn2cc(F)cnc2c1C(=O)Nc1cnccc1-c1ccc(C(=O)N2CCC(N3CCC3)CC2)nc1 [I-C-54, 2-amino-N-(6-(4-(azetidin-1-yl)piperidine-1-carbonyl)-[3,4′-bipyridin]-3′-yl)-6-fluoropyrazolo[1,5-a]pyrimidine-3-carboxamide] | +++ (Cisplatin sensitization value of <0.02 μM)
Cn1ccnc1-c1ccncc1NC(=O)c1c(N)nn2cc(F)cnc12 [I-C-55, 2-amino-6-fluoro-N-(4-(1-methyl-1H-imidazol-2-yl)pyridin-3-yl)pyrazolo[1,5-a]pyrimidine-3-carboxamide] | + (Cisplatin sensitization value>0.2 μM but <5 μM)
Cn1cncc1-c1ccncc1NC(=O)c1c(N)nn2cc(F)cnc12 [I-C-56, 2-amino-6-fluoro-N-(4-(1-methyl-1H-imidazol-5-yl)pyridin-3-yl)pyrazolo[1,5-a]pyrimidine-3-carboxamide] | +++ (Cisplatin sensitization value of <0.02 μM)
Cn1nccc1-c1ccncc1NC(=O)c1c(N)nn2cc(F)cnc12 [I-C-57, 2-amino-6-fluoro-N-(4-(1-methyl-1H-pyrazol-5-yl)pyridin-3-yl)pyrazolo[1,5-a]pyrimidine-3-carboxamide] | +++ (Cisplatin sensitization value of <0.02 μM)
Cn1c(-c2ccncc2NC(=O)c2c(N)nn3cc(F)cnc23)cccc1=O [I-C-58, 2-amino-6-fluoro-N-(1-methyl-6-oxo-1,6-dihydro-[2,4′-bipyridin]-3′-yl)pyrazolo[1,5-a]pyrimidine-3-carboxamide] | +++ (Cisplatin sensitization value of <0.02 μM)
Cn1cc(-c2ccncc2NC(=O)c2c(N)nn3cc(F)cnc23)ccc1=O [I-C-59, 2-amino-6-fluoro-N-(1-methyl-6-oxo-1,6-dihydro-[3,4′-bipyridin]-3′-yl)pyrazolo[1,5-a]pyrimidine-3-carboxamide] | ++ (Cisplatin sensitization value>0.02 μM but <0.2 μM)
Nc1nn2cc(F)cnc2c1C(=O)Nc1cnccc1-c1ccccn1 [I-C-60, N-([2,4′-bipyridin]-3′-yl)-2-amino-6-fluoropyrazolo[1,5-a]pyrimidine-3-carboxamide] | ++ (Cisplatin sensitization value>0.02 μM but <0.2 μM)
CS(=O)(=O)c1ccc(-c2ccncc2NC(=O)c2c(N)nn3cc(F)cnc23)cc1 [I-C-61, 2-amino-6-fluoro-N-(4-(4-(methylsulfonyl)phenyl)pyridin-3-yl)pyrazolo[1,5-a]pyrimidine-3-carboxamide] | +++ (Cisplatin sensitization value of <0.02 μM)
Cc1nccnc1-c1ccncc1NC(=O)c1c(N)nn2cc(F)cnc12 [I-C-62, 2-amino-6-fluoro-N-(4-(3-methylpyrazin-2-yl)pyridin-3-yl)pyrazolo[1,5-a]pyrimidine-3-carboxamide] | ++ (Cisplatin sensitization value>0.02 μM but <0.2 μM)
Cc1nn(C)cc1-c1ccncc1NC(=O)c1c(N)nn2cc(F)cnc12 [I-C-63, 2-amino-N-(4-(1,3-dimethyl-1H-pyrazol-4-yl)pyridin-3-yl)-6-fluoropyrazolo[1,5-a]pyrimidine-3-carboxamide] | +++ (Cisplatin sensitization value of <0.02 μM)
Nc1nn2cc(F)cnc2c1C(=O)Nc1cnccc1-c1ccc(S(=O)(=O)N2CCC2)cc1 [I-C-64, 2-amino-N-(4-(4-(azetidin-1-ylsulfonyl)phenyl)pyridin-3-yl)-6-fluoropyrazolo[1,5-a]pyrimidine-3-carboxamide] | +++ (Cisplatin sensitization value of <0.02 μM)
Cn1ncnc1-c1ccncc1NC(=O)c1c(N)nn2cc(F)cnc12 [I-C-65, 2-amino-6-fluoro-N-(4-(1-methyl-1H-1,2,4-triazol-5-yl)pyridin-3-yl)pyrazolo[1,5-a]pyrimidine-3-carboxamide] | ++ (Cisplatin sensitization value>0.02 μM but <0.2 μM)
CN1CCOC[C@@H]1c1ccc(-c2ccncc2NC(=O)c2c(N)nn3cc(F)cnc23)cc1 [I-C-66, (S)-2-amino-6-fluoro-N-(4-(4-(4-methylmorpholin-3-yl)phenyl)pyridin-3-yl)pyrazolo[1,5-a]pyrimidine-3-carboxamide] | +++ (Cisplatin sensitization value of <0.02 μM)
Cc1cncnc1-c1ccncc1NC(=O)c1c(N)nn2cc(F)cnc12 [I-C-67, 2-amino-6-fluoro-N-(4-(5-methylpyrimidin-4-yl)pyridin-3-yl)pyrazolo[1,5-a]pyrimidine-3-carboxamide] | ++ (Cisplatin sensitization value>0.02 μM but <0.2 μM)
Cn1ccc(-c2ccncc2NC(=O)c2c(N)nn3cc(F)cnc23)n1 [I-C-68, 2-amino-6-fluoro-N-(4-(1-methyl-1H-pyrazol-3-yl)pyridin-3-yl)pyrazolo[1,5-a]pyrimidine-3-carboxamide] | + (Cisplatin sensitization value>0.2 μM but <5 μM)
CC(=O)N1CCC(c2ccncc2NC(=O)c2c(N)nn3cc(F)cnc23)CC1 [I-C-69, N-(4-(1-acetylpiperidin-4-yl)pyridin-3-yl)-2-amino-6-fluoropyrazolo[1,5-a]pyrimidine-3-carboxamide] | +++ (Cisplatin sensitization value of <0.02 μM)
Nc1nn2cc(F)cnc2c1C(=O)Nc1cnccc1C1CCN(C(=O)C2CC2)CC1 [I-C-70, 2-amino-N-(4-(1-(cyclopropanecarbonyl)piperidin-4-yl)pyridin-3-yl)-6-fluoropyrazolo[1,5-a]pyrimidine-3-carboxamide] | +++ (Cisplatin sensitization value of <0.02 μM)
N#CC1(C(=O)N2CCC(c3ccncc3NC(=O)c3c(N)nn4cc(F)cnc34)CC2)CC1 [I-C-71, 2-amino-N-(4-(1-(1-cyanocyclopropanecarbonyl)piperidin-4-yl)pyridin-3-yl)-6-fluoropyrazolo[1,5-a]pyrimidine-3-carboxamide] | +++ (Cisplatin sensitization value of <0.02 μM)
Cn1nncc1-c1ccncc1NC(=O)c1c(N)nn2cc(F)cnc12 [I-C-72, 2-amino-6-fluoro-N-(4-(1-methyl-1H-1,2,3-triazol-5-yl)pyridin-3-yl)pyrazolo[1,5-a]pyrimidine-3-carboxamide] | +++ (Cisplatin sensitization value of <0.02 μM)
CN1CCC(c2ccncc2NC(=O)c2c(N)nn3cc(F)cnc23)CC1=O (centres unmarked) [I-C-73, 2-amino-6-fluoro-N-(4-(1-methyl-2-oxopiperidin-4-yl)pyridin-3-yl)pyrazolo[1,5-a]pyrimidine-3-carboxamide] | ++ (Cisplatin sensitization value>0.02 μM but <0.2 μM)
Cn1ccc2c(NC(=O)c3c(N)nn4cc(F)cnc34)cncc21 [I-C-74, 2-amino-6-fluoro-N-(1-methyl-1H-pyrrolo[2,3-c]pyridin-4-yl)pyrazolo[1,5-a]pyrimidine-3-carboxamide] | + (Cisplatin sensitization value>0.2 μM but <5 μM)
Nc1nn2cc(F)cnc2c1C(=O)Nc1cnccc1C1CCOC1 (centres unmarked) [I-C-75, 2-amino-6-fluoro-N-(4-(tetrahydrofuran-3-yl)pyridin-3-yl)pyrazolo[1,5-a]pyrimidine-3-carboxamide] | ++ (Cisplatin sensitization value>0.02 μM but <0.2 μM)
Nc1nn2cc(F)cnc2c1C(=O)Nc1cnccc1CN1CCCC1=O [I-C-76, 2-amino-6-fluoro-N-(4-((2-oxopyrrolidin-1-yl)methyl)pyridin-3-yl)pyrazolo[1,5-a]pyrimidine-3-carboxamide] | + (Cisplatin sensitization value>0.2 μM but <5 μM)
Cc1ncc(-c2ccncc2NC(=O)c2c(N)nn3cc(F)cnc23)n1C [I-C-77, 2-amino-N-(4-(1,2-dimethyl-1H-imidazol-5-yl)pyridin-3-yl)-6-fluoropyrazolo[1,5-a]pyrimidine-3-carboxamide] | +++ (Cisplatin sensitization value of <0.02 μM)
Cc1ncn(C)c1-c1ccncc1NC(=O)c1c(N)nn2cc(F)cnc12 [I-C-78, 2-amino-N-(4-(1,4-dimethyl-1H-imidazol-5-yl)pyridin-3-yl)-6-fluoropyrazolo[1,5-a]pyrimidine-3-carboxamide] | ++ (Cisplatin sensitization value>0.02 μM but <0.2 μM)
Cn1cncc1-c1c(F)cncc1NC(=O)c1c(N)nn2cc(F)cnc12 [I-C-79, 2-amino-6-fluoro-N-(5-fluoro-4-(1-methyl-1H-imidazol-5-yl)pyridin-3-yl)pyrazolo[1,5-a]pyrimidine-3-carboxamide] | +++ (Cisplatin sensitization value of <0.02 μM)
CCn1cncc1-c1ccncc1NC(=O)c1c(N)nn2cc(F)cnc12 [I-C-80, 2-amino-N-(4-(1-ethyl-1H-imidazol-5-yl)pyridin-3-yl)-6-fluoropyrazolo[1,5-a]pyrimidine-3-carboxamide] | +++ (Cisplatin sensitization value of <0.02 μM)
